Assay results as given in patent publication US10130615B2, “Benzomorphan analogs and the use thereof” (priority 2014, dated 2018).
Read-outs that look alike come from different tables or passages of the source.

Experiments:
μ-opioid receptor [1] = biological target: T1, μ-opioid receptor (Homo sapiens, UniProt P35372); assay: μ-opioid receptor GTPγS functional assay, U2OS cells; conditions: for Emax: read-out: GTPγS μ Emax
μ-opioid receptor [2] = biological target: T1, μ-opioid receptor; assay: biochemical; parameters: purchased Perkin Elmer, Shelton, Conn; host or cells: HEK-293 or CHO; conditions: HEK-293 or CHO cells; for EC50: read-out: GTPγS μ EC50; for Emax: relative to DAMGO, read-out: GTPγS μ Emax
μ-opioid receptor [3] = biological target: T1, μ-opioid receptor; assay: cell-based; parameters: purchased Perkin Elmer, Shelton, Conn; conditions: U2OS cells; for EC50: read-out: β-Arr2 μ EC50; for Emax: read-out: β-Arr2 μ Emax
κ-opioid receptor [4] = biological target: T2, κ-opioid receptor (Homo sapiens, UniProt P41145); assay: κ-opioid receptor GTPγS functional assay, U2OS cells; type: biochemical; parameters: expressed in transfected cells; host or cells: U-2 OS; conditions: U2OS cells; for EC50: read-out: GTPγS κ EC50
T2 sequence (P41145 whole entry): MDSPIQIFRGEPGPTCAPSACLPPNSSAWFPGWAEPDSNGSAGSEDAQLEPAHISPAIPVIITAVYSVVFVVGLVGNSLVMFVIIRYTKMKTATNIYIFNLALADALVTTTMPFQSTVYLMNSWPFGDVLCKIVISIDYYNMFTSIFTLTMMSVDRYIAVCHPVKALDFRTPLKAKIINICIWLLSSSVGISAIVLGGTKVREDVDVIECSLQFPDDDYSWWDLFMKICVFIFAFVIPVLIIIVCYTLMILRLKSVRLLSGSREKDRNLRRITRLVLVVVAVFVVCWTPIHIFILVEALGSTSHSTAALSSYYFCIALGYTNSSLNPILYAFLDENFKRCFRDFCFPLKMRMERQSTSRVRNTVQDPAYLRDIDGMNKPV
Procedure: (§1) Plates were incubated for 30 min at a temperature of about 25° C. with shaking.

κ-opioid receptor [5] = biological target: T2, κ-opioid receptor; assay: κ-opioid receptor β-Arr2 activity response, U2OS cells; type: cell-based; parameters: expressed in transfected cells; host or cells: U-2 OS; conditions: U2OS cells; for EC50: read-out: β-Arr2 κ EC50
κ-opioid receptor [6] = biological target: T2, κ-opioid receptor; assay: κ-opioid receptor radioligand binding assay ([3H]-U69,593); parameters: expressed in transfected cells; host or cells: HEK-293
Procedure: κ-opioid Receptor Binding Assay Procedures: Membranes from recombinant HEK-293 cells expressing the human κ opioid receptor (κ) (cloned in house) were prepared by lysing cells in ice cold hypotonic buffer (2.5 mM MgCl2, 50 mM HEPES, pH 7.4) (10 mL/10 cm dish) followed by homogenization with a tissue grinder/Teflon pestle. Membranes were collected by centrifugation at 30,000×g for 15 min at 4° C. and pellets were resuspended in hypotonic buffer to a final concentration of 1-3 mg/mL. Protein concentrations were determined using the BioRad protein assay reagent with bovine serum albumen as standard. Aliquots of κ receptor membranes were stored at −80° C.
Radioligand dose displacement assays used 0.4 nM [^3H]-U69,593 (GE Healthcare, Piscataway, N.J.; 40 Ci/mmole) with 15 μg membrane protein (recombinant κ opioid receptor expressed in HEK 293 cells; in-house prep) in a final volume of 200 μl binding buffer (5% DMSO, 50 mM Trizma base, pH 7.4). Non-specific binding was determined in the presence of 10 μM unlabeled naloxone or U69,593. All reactions were performed in 96-well polypropylene plates for 1 hr at a temperature of about 25° C.

κ-opioid receptor [7] = biological target: T2, κ-opioid receptor; assay: κ-opioid receptor [35S]GTPγS functional assay, HEK-293 or CHO cells; type: biochemical; parameters: expressed in transfected cells; host or cells: HEK-293; conditions: HEK-293 or CHO cells; for EC50: read-out: GTPγS κ EC50; for Emax: relative to U69,593
Procedure: as §1

[8] = HEK-293 or CHO cells, read-out: Ki (nM) Opioid Receptor κ

T1 sequence (P35372 whole entry, species assumed): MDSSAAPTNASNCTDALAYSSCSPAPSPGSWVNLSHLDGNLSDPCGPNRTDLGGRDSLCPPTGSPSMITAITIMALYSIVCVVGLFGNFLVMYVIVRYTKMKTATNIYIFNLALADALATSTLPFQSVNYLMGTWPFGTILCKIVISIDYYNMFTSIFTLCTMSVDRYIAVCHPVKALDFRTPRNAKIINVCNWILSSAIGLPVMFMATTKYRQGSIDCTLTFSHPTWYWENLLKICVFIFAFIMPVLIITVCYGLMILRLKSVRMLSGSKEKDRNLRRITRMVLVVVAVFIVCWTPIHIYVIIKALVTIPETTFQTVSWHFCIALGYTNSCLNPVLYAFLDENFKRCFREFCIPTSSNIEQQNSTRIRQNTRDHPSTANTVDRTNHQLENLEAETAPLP

Row | Compound | EC50 (μ-opioid receptor [1]) [nM] | Emax (μ-opioid receptor [1]) [%] | EC50 (μ-opioid receptor [2]) [nM] | Emax (μ-opioid receptor [2]) [%] | EC50 (μ-opioid receptor [3]) [nM] | Emax (μ-opioid receptor [3]) [%] | Emax (κ-opioid receptor [4]) [%] | EC50 (κ-opioid receptor [4]) [nM] | Emax (κ-opioid receptor [5]) [%] | EC50 (κ-opioid receptor [5]) [nM] | Ki (κ-opioid receptor [6]; [8]) [nM] | EC50 (κ-opioid receptor [7]) [nM] | Emax (κ-opioid receptor [7]) [%] | Ki (κ-opioid receptor [6]) [nM]
1 | C[C@H]1[C@H]2Cc3ccc(O)cc3[C@]1(CCOc1cncc(C(=O)O)c1)CCN2C [Compound 52, 5-(2-((2R,6S,11R)-8-hydroxy-3,11-dimethyl-2,3,4,5-tetrahydro-2,6-methanobenzo[d]azocin-6(1H)-yl)ethoxy)nicotinic acid] | 68.1 ± 6.57 | 89 ± 4 | 320 ± 46.9 | 35 ± 1.53 | 403 ± 110 | 6.77 ± 1.13 | 99 ± 1.73 | 434 ± 39.1 | 1 |  |  |  |  | 
2 | COc1ccc2c(c1)[C@]1(CCOCc3ccccc3)CCN(C)[C@H](C2)[C@@H]1C [Compound 48, (2R,6S,11R)-6-(2-(benzyloxy)ethyl)-8-methoxy-3,11-dimethyl-1,2,3,4,5,6-hexahydro-2,6-methanobenzo[d]azocine] | 313 ± 28 | 97 ± 2.08 | 2240 ± 190 | 53.1 ± 4.36 | 4380 ± 627 | 27.7 ± 0.88 | 108 ± 4.51 | 104 ± 15.8 | 64.3 ± 9.39 | 16300 ± 7600 |  |  |  | 
3 | C[C@H]1[C@H]2Cc3ccc(O)cc3[C@]1(CCNS(C)(=O)=O)CCN2C [Compound 13, N-(2-((2R,6S,11R)-8-hydroxy-3,11-dimethyl-2,3,4,5-tetrahydro-2,6-methanobenzo[d]azocin-6(1H)-yl)ethyl)methanesulfonamide] |  |  | 285 ± 72 | 25 ± 1.53 |  | -1 |  |  |  |  | 20.5 ± 3.21 | 166 ± 1.48 | 30.8 ± 0.19 | 
4 | C[C@H]1[C@H]2Cc3ccc(O)cc3[C@]1(CC(=O)NCCc1ccc(S(N)(=O)=O)cc1)CCN2C [Compound 62, 2-((2R,6S,11R)-8-hydroxy-3,11-dimethyl-2,3,4,5-tetrahydro-2,6-methanobenzo[d]azocin-6(1H)-yl)-N-(4-sulfamoylphenethyl)acetamide] | 172 ± 18.7 | 49.7 ± 0.88 | 538 ± 22.9 | 17 ± 1.53 |  | -1 | 35.7 ± 1.67 | 1120 ± 53.4 |  |  |  |  |  | 
5 | C[C@H]1[C@H]2Cc3ccc(O)cc3[C@]1(CCNC(=O)Nc1ccc(C(=O)O)cc1)CCN2CC1CC1 [Compound 2, 4-(3-(2-((2R,6R,11R)-3-(cyclopropyl-methyl)-8-hydroxy-11-methyl-2,3,4,5-tetrahydro-2,6-methanobenzo[d]azocin-6(1H)-yl)ethyl)ureido)benzoic acid] | 1.89 ± 0.18 | 72.5 ± 1.5 |  |  |  | -1.5 | 106 ± 2.52 | 4.11 ± 0.25 | 28.7 ± 4.67 | 8.4 ± 1.86 | 7.08 ± 0.71 |  |  | 
6 | COc1ccc2c(c1)[C@@]1(CCO)CCN(CC3CC3)[C@@H](C2)[C@H]1C [Compound 46, 2-((2S,6R,11S)-3-(cyclopropylmethyl)-8-methoxy-11-methyl-2,3,4,5-tetrahydro-2,6-methanobenzo[d]azocin-6(1H)-yl)ethan-1-ol] |  |  |  |  |  |  |  |  |  |  |  |  |  | 3580 ± 457
7 | COc1ccc2c(c1)[C@]1(CCNC(=O)[C@H](C)NC(C)=O)CCN(CC3CC3)[C@H](C2)[C@@H]1C [Compound 4, (S)-2-acetamido-N-(2-((2R,6R,11R)-3-(cyclopropylmethyl)-8-methoxy-11-methyl-2,3,4,5-tetrahydro-2,6-methanobenzo[d]azocin-6(1H)-yl)ethyl)propanamide] | 522 ± 60.1 | 80.2 ± 3.3 |  | 0 |  | 1.3 ± 0.77 | 97 ± 5.29 | 38.2 ± 4.89 | 59.3 ± 4.06 | 403 ± 59.9 |  |  |  | 
8 | C[C@H]1[C@H]2Cc3ccc(O)cc3[C@]1(CC(=O)N1CCC(N(C3CC3)S(=O)(=O)c3ccc(Cl)cc3)CC1)CCN2C [Compound 61, 4-chloro-N-cyclopropyl-N-(1-(2-((2R,6S,11R)-8-hydroxy-3,11-dimethyl-2,3,4,5-tetrahydro-2,6-methano-benzo[d]azocin-6(1H)-yl)acetyl)-piperidin-4-yl)benzenesulfonamide] | 146 ± 24.8 | 78.7 ± 0.33 | 283 ± 28.8 | 35.7 ± 1.2 | 649 ± 180 | 7.67 ± 0.73 | 42.7 ± 2.03 | 45.4 ± 6.69 | 14.7 ± 1.33 | 7290 ± 2060 |  |  |  | 
9 | C[C@H]1[C@H]2Cc3ccc(O)cc3[C@]1(CCN1CCC(N(C3CC3)S(=O)(=O)c3ccc(Cl)cc3)CC1)CCN2C [Compound 58, 4-chloro-N-cyclopropyl-N-(1-(2-((2R,6R,11R)-8-hydroxy-3,11-dimethyl-2,3,4,5-tetrahydro-2,6-methanobenzo-[d]azocin-6(1H)-yl)ethyl)piperidin-4-yl)-benzenesulfonamide] | 20.3 ± 1.82 | 98 ± 2 | 179 ± 12.7 | 53.3 ± 2.96 | 2140 ± 586 | 77.7 ± 7.06 | 60 ± 1 | 11 ± 1.59 | 80.3 ± 7.75 | 8900 ± 1620 |  |  |  | 
10 | C[C@H]1[C@H]2Cc3ccc(O)cc3[C@]1(CCNS(=O)(=O)C1CC1)CCN2CC1CC1 [Compound 6, N-(2-((2R,6S,11R)-3-(cyclopropyl-methyl)-8-hydroxy-11-methyl-2,3,4,5-tetrahydro-2,6-methanobenzo[d]azocin-6(1H)-yl)ethyl)-cyclopropanesulfonamide] | 0.88 ± 0.095 | 30.7 ± 0.88 |  | -0.33 ± 0.67 |  | -0.33 ± 0.67 | 107 ± 2.65 | 0.072 ± 0.013 |  |  |  |  |  | 
11 | CCOC(=O)c1ccc(NC(=O)NCC[C@]23CCN(CC4CC4)[C@H](Cc4ccc(OC)cc42)[C@@H]3C)cc1 [Compound 1, Ethyl 4-(3-(2-((2R,6R,11R)-3-(cyclopropylmethyl)-8-methoxy-11-methyl-2,3,4,5-tetrahydro-2,6-methanobenzo[d]azocin-6(1H)-yl)ethyl)ureido)benzoate] | 164 ± 31.6 | 62 ± 2.08 | 4.21 ± 0.67 | 27.8 ± 0.85 |  | 25.5 | 103 ± 3.53 | 5.79 ± 0.56 | 44.2 ± 4.05 | 63.8 ± 7.23 |  | 33.4 ± 2.26 | 78.3 ± 0.91 | 
12 | C[C@H]1[C@H]2Cc3ccc(O)cc3[C@]1(CCNS(C)(=O)=O)CCN2CC1CC1 [Compound 3, N-(2-((2R,6S,11R)-3-(cyclopropyl-methyl)-8-hydroxy-11-methyl-2,3,4,5-tetrahydro-2,6-methanobenzo[d]azocin-6(1H)-yl)ethyl)methanesulfonamide] | 0.85 ± 0.11 | 16.7 ± 0.33 |  |  |  | 0 | 104 ± 2.52 | 0.32 ± 0.031 | -0.33 ± 0.67 |  |  |  |  | 
13 | COc1ccc2c(c1)[C@]1(CCNC(=O)[C@@H]3CCCN3C(C)=O)CCN(CC3CC3)[C@H](C2)[C@@H]1C [Compound 5, (S)-1-acetyl-N-(2-((2R,6R,11R)-3-(cyclopropylmethyl)-8-methoxy-11-methyl-2,3,4,5-tetrahydro-2,6-methanobenzo[d]azocin-6(1H)-yl)ethyl)pyrrolidine-2-carboxamide] | 629 ± 16.8 | 75.2 ± 1.55 | 468 ± 122 | 16.3 ± 1.44 |  | -1 | 100 ± 4.58 | 63.3 ± 10.2 | 58.7 ± 5.93 | 407 ± 65.5 |  |  |  | 
14 | C[C@H]1[C@H]2Cc3ccc(O)cc3[C@]1(CCNCCc1ccc(S(N)(=O)=O)cc1)CCN2C [Compound 59, 4-(2-((2-((2R,6R,11R)-8-hydroxy-3,11-dimethyl-2,3,4,5-tetrahydro-2,6-methanobenzo[d]azocin-6(1H)-yl)ethyl)amino)ethyl)benzenesulfonamide] | 85.6 ± 9.67 | 74 ± 3.51 | 369 ± 50.2 | 38 ± 4.18 |  | -1 | 112 ± 7.54 | 61.2 ± 10 | 1 |  |  |  |  | 
15 | C[C@H]1[C@H]2Cc3ccc(O)cc3[C@]1(CCN1CCN(C(c3ccc(F)cc3)c3ccc(F)cc3)CC1)CCN2C [Compound 8, (2R,6R,11R)-6-(2-(4-(bis(4-fluoro-phenyl)methyl)piperazin-1-yl)ethyl)-3,11-dimethyl-1,2,3,4,5,6-hexahydro-2,6-methanobenzo[d]azocin-8-ol] | 72.7 ± 4.92 | 100 ± 3.06 | 796 ± 72.2 | 47 ± 1.53 | 4710 ± 227 | 70.7 ± 6.98 |  |  |  |  |  |  |  | 
